# Values of other authors in patent US20190380992A1 (Biogen MA Inc., priority 2014, published 2019).
# Counter-ions that a name gives are not always drawn.
# Legend:
# [1] = tested on: multiple sclerosis patients; settings: second phase 3 study; glatiramer acetate as active reference
# [2] = tested on: multiple sclerosis patients; settings: compared with placebo after two years of treatment
# patients initiating DMF = settings: DEFINE and CONFIRM studies
smiles,measurement,setting,value
"COC(=O)/C=C/C(=O)OC [DMF, dimethyl fumarate]",support of the DEFINE findings,[1],findings were supported
same,accumulation of disability progression,[2],significantly reduced
same,clinical relapses,[2],significantly reduced
same,lesion number and volume,[2],significantly reduced
same,safety profile,patients initiating DMF,acceptable safety profile
